Measurements from patent US12077503B2, “Substituted cyclic amides and their use as herbicides” (FMC CORPORATION, priority 2015, dated 2024).

How the values were obtained:
Assay type in all cases: in vivo
[1] = system: corn (Zea mays); test: Test A preemergence; conditions: Zea mays, pre-emergence, 240 h, 0 to 100 scale (0 no effect, 100 complete control); for Corn plant response rating (crop injury, 0 = no effect, 100 = complete kill) at 500 g/ha: 500 g ai/ha, preemergence; for Corn plant response rating (crop injury, 0 = no effect, 100 = complete kill) at 125 g/ha: Preemergence, 125 g ai/ha
Outline: (§1)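 Treatment is preemergence as a directed soil spray after planting, or postemergence at the one- to two-leaf stage, with test chemical in a non-phytotoxic solvent mixture plus surfactant. Plants stay in the greenhouse about 10 d before visual injury scoring on a 0 to 100 scale versus untreated controls.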

[2] = system: crabgrass, large (Digitaria sanguinalis); test: Test A preemergence; conditions: Digitaria sanguinalis, pre-emergence, 240 h, 0 to 100 scale (0 no effect, 100 complete control), read-out: Plant response rating, Crabgrass, Large; for pest or weed control at 500 g/ha: 500 g ai/ha, preemergence; for pest or weed control at 125 g/ha: Preemergence, 125 g ai/ha
Outline: as §1

[3] = system: morningglory (Ipomoea spp.); test: Test A preemergence; conditions: Ipomoea, pre-emergence, 240 h, 0 to 100 scale (0 no effect, 100 complete control), read-out: Plant response rating, Morningglory; for pest or weed control at 500 g/ha: 500 g ai/ha, preemergence; for pest or weed control at 125 g/ha: Preemergence, 125 g ai/ha
Outline: as §1

[4] = system: velvetleaf (Abutilon theophrasti); test: Test A preemergence; conditions: Abutilon theophrasti, pre-emergence, 240 h, 0 to 100 scale (0 no effect, 100 complete control), read-out: Plant response rating, Velvetleaf; for pest or weed control at 500 g/ha: 500 g ai/ha, preemergence; for pest or weed control at 125 g/ha: Preemergence, 125 g ai/ha
Outline: as §1

[5] = system: wheat (Triticum aestivum); test: Test A preemergence; conditions: Triticum aestivum, pre-emergence, 240 h, 0 to 100 scale (0 no effect, 100 complete control), read-out: Plant response rating, Wheat; for plant injury at 500 g/ha: 500 g ai/ha, preemergence; for plant injury at 125 g/ha: Preemergence, 125 g ai/ha
Outline: as §1

[6] = system: crabgrass, large (Digitaria sanguinalis); test: Test A postemergence; conditions: Digitaria sanguinalis, post-emergence, 240 h, Postemergence; for pest or weed control at 125 g/ha: 125 g ai/ha, visual rating about 10 d after treatment, read-out: Crabgrass, Large plant response rating (0 to 100 scale); for pest or weed control at 500 g/ha: 500 g ai/ha, visual injury, 0 to 100 scale (0 no effect, 100 complete control), approx. 10 d, read-out: Plant response rating, Crabgrass, Large
Outline: as §1

[7] = system: morningglory (Ipomoea spp.); test: Test A postemergence; conditions: Ipomoea, post-emergence, 240 h, Postemergence; for pest or weed control at 125 g/ha: 125 g ai/ha, visual rating about 10 d after treatment, read-out: Morningglory plant response rating (0 to 100 scale); for pest or weed control at 500 g/ha: 500 g ai/ha, visual injury, 0 to 100 scale (0 no effect, 100 complete control), approx. 10 d, read-out: Plant response rating, Morningglory
Outline: as §1

[8] = system: velvetleaf (Abutilon theophrasti); test: Test A postemergence; conditions: Abutilon theophrasti, post-emergence, 240 h, Postemergence; for pest or weed control at 125 g/ha: 125 g ai/ha, visual rating about 10 d after treatment, read-out: Velvetleaf plant response rating (0 to 100 scale); for pest or weed control at 500 g/ha: 500 g ai/ha, visual injury, 0 to 100 scale (0 no effect, 100 complete control), approx. 10 d, read-out: Plant response rating, Velvetleaf
Outline: as §1

Row | SMILES | Corn plant response rating (crop injury, 0 = no effect, 100 = complete kill) at 500 g/ha [1] [%] | Corn plant response rating (crop injury, 0 = no effect, 100 = complete kill) at 125 g/ha [1] [%] | pest or weed control at 500 g/ha [2] [%] | pest or weed control at 125 g/ha [2] [%] | pest or weed control at 500 g/ha [3] [%] | pest or weed control at 125 g/ha [3] [%] | pest or weed control at 500 g/ha [4] [%] | pest or weed control at 125 g/ha [4] [%] | plant injury at 500 g/ha [5] [%] | plant injury at 125 g/ha [5] [%] | pest or weed control at 125 g/ha [6] [%] | pest or weed control at 500 g/ha [6] [%] | pest or weed control at 125 g/ha [7] [%] | pest or weed control at 500 g/ha [7] [%] | pest or weed control at 125 g/ha [8] [%] | pest or weed control at 500 g/ha [8] [%]
1 | O=C1NCC(c2ccccc2)C1C(=O)Nc1ccccc1Oc1ccccc1 (stereo not drawn) [Compound 1357] | 0 | 0 | 0 | 0 | 0 | 0 | 0 | 0 | 0 | 0 | 0 | 0 | 0 | 0 | 0 | 0
2 | O=C1NCC(c2ccccc2)C1C(=O)Nc1cccnc1 (stereo not drawn) [Compound 1356] | 0 | 0 | 0 | 0 | 0 | 0 | 0 | 0 | 0 | 0 | 0 | 0 | 0 | 0 | 0 | 0
3 | O=C1NCC(c2ccccc2)C1C(=O)Nc1ccccc1 (stereo not drawn) [Compound 1358] | 0 | 0 | 80 | 20 | – | 0 | 0 | 0 | 50 | 0 | 0 | 30 | 0 | 0 | 0 | 0
4 | N#Cc1ccc(NC(=O)C2C(=O)NCC2c2ccccc2)cc1 (stereo not drawn) [Compound 1355] | 0 | 0 | 0 | 0 | 0 | 0 | 0 | 0 | 0 | 0 | 0 | 0 | 0 | 0 | 0 | 0
